Here are results for ten compounds from ChEMBL document CHEMBL3600354, “Nitric oxide inhibitory activity and antioxidant evaluations of 2-benzoyl-6-benzylidenecyclohexanone analogs, a novel series of curcuminoid and diarylpentanoid derivatives” (Bioorg Med Chem Lett, 2015).

Each structure is given as a SMILES string. Converted amounts (≈) assume the structure as drawn.

Series [1] in a line: Antioxidant activity assessed as DPPH radical scavenging activity at 200 uM incubated for 30 mins under dark conditions. The class given is physicochemical. Conditions: 0.5 h. (DPPH is a stable violet radical that fades when it is reduced.)
The subject of series [2] is RAW264.7. As to the kind of experiment: Cytotoxicity against LPS/IFNgamma-stimulated mouse RAW264.7 cells by MTT assay. The format is cell-based. (In general: Formazan colour is commonly taken as a measure of viable cells.)
Series [3] has as its system RAW264.7. In words: Inhibition of nitric oxide production in LPS/IFNgamma-stimulated mouse RAW264.7 cells at 50 uM incubated for 17 hrs by Griess assay. The format is functional. The following applies: RAW264.7, 17 h. For orientation: Nitrite, measured by Griess reagent, commonly stands in for NO production.
In series [4] the test system is RAW264.7. As to the kind of experiment: Inhibition of nitric oxide production in LPS/IFNgamma-stimulated mouse RAW264.7 cells incubated for 17 hrs by Griess assay. The format is functional, cell-based. The following applies: RAW264.7, 17 h.
The nature of series [5]: Antioxidant activity assessed as nitric oxide radical scavenging activity at 500 uM incubated for 60 mins with light exposure at room temperature by Griess assay. The format is physicochemical. The following applies: 1 h.
The nature of series [6]: Antioxidant activity incubated at 50 degC for 20 mins by FRAP assay. The class given is physicochemical.
For the next series, the system named is Liver microsome. In words: Stability in human liver microsomes assessed as compound degradation at 1 mM pre-incubated at 37 degC for 5 mins followed by NAPDH addition and further incubated at 37 degC for 15 to 120 mins by HPLC method. The format is ADME. The following applies: 1000 µM.
Series [7] is described as follows: Stability in human liver microsomes assessed as compound remaining at 1 mM pre-incubated at 37 degC for 5 mins followed by NAPDH addition and further incubated at 37 degC for 120 mins by HPLC method. The class given is ADME. The following applies: read-out: Stability.
A short description of series [8]: Solubility in phosphate buffer at pH 7.4 stirred for 24 hrs at room temperature by HPLC method. The format is physicochemical.
Series [9] is described as follows: Chemical stability in phosphate buffer at pH 7.4 at 20 uM measured over 30 mins at 5 mins intervals at 25 degC by ultraviolet absorption spectroscopy. The format is physicochemical. Conditions: pH 7.4, 0.5 h.
Series [10] is described as follows: Antioxidant activity assessed as DPPH radical scavenging activity incubated for 30 mins under dark conditions. The format is physicochemical.

Consider `COc1cccc(/C=C2\CCCC(C(=O)c3ccccc3)=C2O)c1`, for which the “inhibition (INH)” value in series [1] is on record as 21.8%; in series [5] it was 28.3%. Also, the IC50 – broadly, the concentration needed to halve the response being measured – in the series on RAW264.7 [2] is more than 100 µM; in the series on RAW264.7 [4], 32.1 µM. The inhibition (in general, how much of the control response was suppressed) at 50 µM in the series with RAW264.7 [3] turned out to be 71.6%. In series [6], the Activity was 0.018 mmolequiv/L.

Regarding `O=C(C1=C(O)/C(=C/c2ccc(O)c(O)c2)CCC1)c1ccccc1`, the figures for the Stability entry (in the series on Liver microsome; in series [9]) were “Unstable” and “Stable”, respectively. Moreover, in [7], the remaining at 2 h, 1000 µM was more than 60%. Besides, the solubility (as a rule, the dissolved amount per volume that the medium holds) at 24 h in series [8] stood at 3.3 µM (≈ 1.06 µg/mL).

In the case of `O=C(C1=C(O)/C(=C/c2cccc3ccccc23)CCC1)c1ccccc1`, the “inhibition (INH)” value came out at 17.8% in series [1] and 14.8% in series [5]. Also, the inhibition at 50 µM in the series on RAW264.7 [3] is 15%. For the same compound, the Activity in series [6] stood at 0.015 mmolequiv/L.

`O=C(C1=C(O)/C(=C/c2ccc3ccccc3c2)CCC1)c1ccccc1`: the entries for the “inhibition (INH)” value in series [1] and in series [5] were 11.7% and 21%, respectively. Testing at 50 µM with RAW264.7 [3] gave an inhibition of 9.3%. In addition, the Activity in series [6] is recorded as 0.073 mmolequiv/L.

`O=C(C1=C(O)/C(=C/c2cccs2)CCC1)c1ccccc1`: the “inhibition (INH)” value came to 21.8% in [1] and 3.3% in series [5]. In the series on RAW264.7 [3], the inhibition at 50 µM is 8.2%. This compound also yielded an Activity in series [6] of 0.177 mmolequiv/L.

Take `Cc1ccc(/C=C2\CCCC(C(=O)c3ccccc3)=C2O)s1`: the “inhibition (INH)” value in series [1] turned out to be 18.4%; in series [5] it was 1.6%. This compound gave an inhibition at 50 µM in the series with RAW264.7 [3] of 7.6%. Also, in [6], the Activity came to 0.14 mmolequiv/L.

On to `O=C1O[C@H]([C@@H](O)CO)C(O)=C1O` [ASCORBIC ACID], for which the “inhibition (INH)” value in series [5] stood at 2.6%.

Take `Cc1cc(C(C)(C)C)c(O)c(C(C)(C)C)c1` [BUTYLATED HYDROXYTOLUENE]: the “inhibition (INH)” value in [5] amounted to 6.5%. In series [6], this compound displayed an Activity of 0.798 mmolequiv/L.

With `COc1cc(/C=C/C(=O)CC(=O)/C=C/c2ccc(O)c(OC)c2)ccc1O` [CURCUMIN], the Stability result (in the series with Liver microsome; in series [9]) was “Unstable” each time. Besides, the “inhibition (INH)” value in series [1] worked out at 84.2%; in series [5], 88.3%. Further, in series [7], the remaining at 2 h, 1000 µM is less than 20%. Also, the concentration in solution in [8] (solubility at 24 h) came to 1.1 µM (≈ 0.405 µg/mL). The IC50 in series [10] was 23.6 µM; with RAW264.7 [2] it was 28.8 µM; in the series with RAW264.7 [4], 14.7 µM. For the same compound, at 50 µM the inhibition in the series on RAW264.7 [3] was 99.3%. Also, in series [6], the Activity is 0.803 mmolequiv/L.

As to `Cc1c(C)c2c(c(C)c1O)CCC(C)(C(=O)O)O2` (configuration not stated) [TROLOX], in series [5], the “inhibition (INH)” value amounted to 12.4%. In [6], this compound gave an Activity of 0.395 mmolequiv/L.
